The values below are quoted from earlier work in patent US7439254B2, “Compounds, compositions, and methods” (Cytokinetics, Inc., priority 2003, dated 2008).

This data set has as its system A549 cells. The conditions noted are these: data provided by National Cancer Institute, Developmental Therapeutic Program.

Turning to `O=c1[nH]cc(F)c(=O)[nH]1` [5-fluorouracil], the GI50 was 1000 nM. Take `CC(=O)O[C@H]1C(=O)[C@@]2(C)[C@H]([C@H](OC(=O)c3ccccc3)[C@]3(O)C[C@H](OC(=O)[C@H](O)[C@@H](NC(=O)c4ccccc4)c4ccccc4)C(C)=C1C3(C)C)[C@]1(OC(C)=O)CO[C@@H]1C[C@@H]2O` [paclitaxel]: the GI50 is 4 nM. Turning to `COc1cccc2c1C(=O)c1c(O)c3c(c(O)c1C2=O)C[C@@](O)(C(=O)CO)C[C@@H]3O[C@H]1C[C@H](N)[C@H](O)[C@H](C)O1` [doxorubicin], the concentration for 50% growth inhibition (GI50) is 63 nM. `NC(=O)NO` [hydroxyurea]: the concentration for 50% growth inhibition (GI50) is 500000 nM.
